Reference: patent publication US9428536B2, “Immunostimulatory G, U-containing oligoribonucleotides” (Zoetis Belgium SA, priority 2002, dated 2016)

Columns and labels:
[1] = test system: wild type murine macrophages; test: Wild type murine macrophages in the presence of IFN-γ, IL-12 p40 ELISA; type: cell-based, mouse; conditions: FIG. 6 Panel A, 12 hours, RNA with DOTAP
Protocol: The following murine cells were isolated and incubated with various RNAs and other known TLR ligands in order to assess species-, cell type-, and signaling pathway-specificity: wild type macrophages in the presence of IFN-γ; MyD88-deficient macrophages in the presence of IFN-γ; J774 (mouse macrophage cell line); and RAW 264.7 (mouse macrophage cell line, e.g., ATCC TIB-71). Murine bone macrophages were generated from wild type or MyD88-deficient C57BL/6 mice by culturing bone marrow cells with 50 ng/ml M-CSF for 5 days. Cells were seeded at 25,000 cells/well and treated with 20 ng/ml IFN-γ for 16 hours. The murine macrophage cell lines RAW and J774 were seeded at 10,000 cells/well.
The following test and control agents were examined: R-848 (2 μg/ml), ODN 1668 (CpG DNA; 5′-[…]-3′; SEQ ID NO:7); LPS (1 μg/ml); poly IC (50 μg/ml); Pam3Cys (5 μg/ml); Ionomycin/TPA; the following RNA molecules, each with (“+Lipo”) and without DOTAP (10 μg/200 μl culture well): GUGUUUAC alone (RNA1); GUAGGCAC alone (RNA2); GUGUUUAC in combination with GUAGGCAC (RNA1/2); […] (RNA6; SEQ ID NO:8); […] (RNA9; SEQ ID NO:9); and the following DNA molecules, corresponding to RNA1, RNA2, and RNA1/2: GTGTTTAC alone (DNA1); GTAGGCAC alone (DNA2); and GTGTTTAC in combination with GTAGGCAC (DNA1/2). These RNA and DNA oligonucleotides each contained a phosphorothioate linkage between the penultimate and 3′ terminal nucleoside. RNA6 and RNA9 each contained in addition a phosphorothioate linkage between the penultimate and 5′ terminal nucleoside. RNA6 corresponds to a ribosomal RNA stem loop derived from Listeria monocytogenes. RNA9 corresponds to a stem loop derived from human immunodeficiency virus (HIV, an RNA retrovirus). The cells were cultured for 12 hours and supernatants were harvested. Murine IL-12 p40, IL-6, and TNF-α were measured by ELISA using matched antibody pairs from BD-Pharmingen according to the manufacturer's protocol.

human TLR7 = molecular target: T1, human TLR7 (Homo sapiens, UniProt Q9NYK1); test: NF-κB luciferase reporter in 293 HEK cells transfected with human TLR7; type: cell-based; conditions: FIG. 12; transient transfectants; 7 hours stimulation
T1 construct: All full-length TLR fragments were cloned into pGEM-T Easy vector; expressed in transfected cells; host or cells: 293 HEK cells (ATCC), transient electroporation with pcDNA3.1(-) TLR expression plasmid
T1 sequence (Q9NYK1 27-1049): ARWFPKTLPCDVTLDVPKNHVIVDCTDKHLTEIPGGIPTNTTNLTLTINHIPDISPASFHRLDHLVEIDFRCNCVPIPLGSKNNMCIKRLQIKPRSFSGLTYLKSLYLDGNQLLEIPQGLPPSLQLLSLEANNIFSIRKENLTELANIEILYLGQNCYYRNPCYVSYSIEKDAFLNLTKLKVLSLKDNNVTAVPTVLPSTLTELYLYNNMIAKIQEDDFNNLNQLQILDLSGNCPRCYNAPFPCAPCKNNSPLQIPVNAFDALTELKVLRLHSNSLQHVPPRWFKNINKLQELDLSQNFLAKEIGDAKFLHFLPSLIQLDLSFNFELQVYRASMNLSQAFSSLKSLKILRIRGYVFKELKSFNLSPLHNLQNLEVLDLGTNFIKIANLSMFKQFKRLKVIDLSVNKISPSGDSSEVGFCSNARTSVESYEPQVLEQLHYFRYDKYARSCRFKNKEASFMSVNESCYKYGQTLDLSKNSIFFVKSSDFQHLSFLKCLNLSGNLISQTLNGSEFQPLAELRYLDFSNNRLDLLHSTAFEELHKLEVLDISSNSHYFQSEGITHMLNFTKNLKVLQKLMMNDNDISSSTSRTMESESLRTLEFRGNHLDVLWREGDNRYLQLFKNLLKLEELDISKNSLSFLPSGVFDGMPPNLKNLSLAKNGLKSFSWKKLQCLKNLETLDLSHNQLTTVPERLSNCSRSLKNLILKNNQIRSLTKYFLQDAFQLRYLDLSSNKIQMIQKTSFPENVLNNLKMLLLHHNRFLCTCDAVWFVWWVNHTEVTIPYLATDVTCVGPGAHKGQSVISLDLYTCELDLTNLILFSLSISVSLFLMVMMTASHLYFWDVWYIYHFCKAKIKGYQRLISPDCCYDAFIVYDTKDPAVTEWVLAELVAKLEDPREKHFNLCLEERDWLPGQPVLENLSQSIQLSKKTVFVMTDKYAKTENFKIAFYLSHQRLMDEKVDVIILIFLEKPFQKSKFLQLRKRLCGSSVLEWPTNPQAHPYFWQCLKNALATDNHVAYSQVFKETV
Protocol: FIG. 12 depicts the responsiveness of human TLR7 and human TLR8 to ribonucleosides. It was determined that the response by human PBMC to RNA or RVC was mediated by TLR7 or TLR8 and further that the response could be driven by ribonucleosides only. Human 293 cells were either mock-transfected or transfected with human TLR7 or human TLR8 and monitored for responsiveness to ribonucleosides. The open reading frames of human TLR7 (hTLR7) and human TLR8 (hTLR8) were amplified by PCR from a cDNA library of human PBMC using the following primers pairs: for TLR7, 5′-[…]-3′ (SEQ ID NO:15) and 5′-[…]-3′ (SEQ ID NO:16); and for TLR8, 5′-[…]-3′ (SEQ ID NO:17) and 5′-[…]-3′ (SEQ ID NO:18). The sequence information for primer selection was obtained from Genbank accession numbers AF240467 and AF245703. All full-length TLR fragments were cloned into pGEM-T Easy vector (Promega, Mannheim, Germany), excised with NotI, cloned into the expression vector pcDNA 3.1(−) (Invitrogen, Karlsruhe, Germany) and sequenced. Sequences of the coding region of hTLR7 and hTLR8 correspond to the accession numbers AF240467 (SEQ ID NO:25) and AF245703, respectively (SEQ ID NO:29).
For monitoring transient NF-κB activation, 3×10^6 293 HEK cells (ATCC, VA, USA) were electroporated at 200 volt and 960 μF with 1 μg TLR expression plasmid, 20 ng NF-κB luciferase reporter-plasmid and 14 μg of pcDNA3.1(−) plasmid as carrier in 400 μl RPMI medium supplemented with 25% fetal bovine serum (FCS). Cells were seeded at 10^5 cells per well and after over night culture stimulated with R-848 (denoted in FIG. 12 as X; commercially synthesized by GLSynthesis Inc., Worcester, Mass., USA), RVCs or ribonucleosides for a further 7 hours. Stimulated cells were lysed using reporter lysis buffer (Promega, Mannheim, Germany), and lysate was assayed for luciferase activity using a Berthold luminometer (Wildbad, Germany).

response of TLR7 transfectants (NF-κB luciferase) (human TLR7): responded
SMILES: CCOCc1nc2c(N)nc3ccccc3c2n1CC(C)(C)O [R-848, 4-amino-α,α-dimethyl-2-ethoxymethyl-1H-imidazo[4,5-c]quinoline-1-ethanol, reference compound]
IL-12 p40 secretion by wild type murine macrophages [1]: significant amounts
